Laboratory results published in ChEMBL document CHEMBL4229520, “Design and synthesis of C10 modified and ring-truncated canthin-6-one analogues as effective membrane-active antibacterial agents” (Bioorg Med Chem Lett, 2018).
In brackets after ≈: the same amount, converted by molar mass. Activity calls are given as the source filed them. No cut-off for these calls is given here.

What was measured:
Ralstonia solanacearum [1] = test: Antibacterial activity against Ralstonia solanacearum after 12 to 14 hrs; format: functional
Staphylococcus aureus [2] = test: Antibacterial activity against Staphylococcus aureus after 12 to 14 hrs; format: functional
Bacillus cereus = test: Antibacterial activity against Bacillus cereus after 12 to 14 hrs; format: functional
Staphylococcus aureus [3] = test: Antibacterial activity against methicillin-resistant Staphylococcus aureus after 12 to 14 hrs; format: functional
Bacillus subtilis = test: Antibacterial activity against Bacillus subtilis after 12 to 14 hrs; format: functional
Radish = test: Allelopathic activity against Raphanus sativus assessed as germination rate at 4 ug/ml after 48 hrs (reference value: 92 +/- 0.47%); format: organism-based; conditions: in vivo
Triticum aestivum = test: Allelopathic activity against Triticum aestivum assessed as germination rate at 4 ug/ml after 48 hrs (reference value: 91 +/- 0.42%); format: organism-based; conditions: in vivo
A549 = test: Cytotoxicity against human A549 cells assessed as decrease in cell viability after 48 hrs by MTT assay; format: cell-based; conditions: A549, 48 h
[4] = Selectivity index, ratio of IC50 for human A549 cells to MIC for Bacillus cereus; format: toxicity; conditions: read-out: Selectivity Index
[5] = Selectivity index, ratio of IC50 for human L02 cells to MIC for Bacillus cereus; format: toxicity; conditions: read-out: Selectivity Index
[6] = Selectivity index, ratio of IC50 for human HeLa cells to MIC for Bacillus cereus; format: toxicity; conditions: read-out: Selectivity Index
[7] = Cytotoxicity against human L02 cells assessed as cell viability at 4 ug/ml after 48 hrs by MTT assay relative to control; format: cell-based; conditions: read-out: Activity
HeLa = test: Cytotoxicity against human HeLa cells assessed as decrease in cell viability after 48 hrs by MTT assay; format: cell-based
Staphylococcus aureus [8] = test: Induction of membrane permeabilization in Staphylococcus aureus at MIC by beta-galactosidase leakage assay; format: functional, organism-based
[9] = Selectivity index, ratio of IC50 for human L02 cells to MIC for Ralstonia solanacearum; format: toxicity; conditions: read-out: Selectivity Index
Ralstonia solanacearum [10] = test: Protection against Ralstonia solanacearum-induced infection in eggplant leaf at 4 ug/ml after 3 days relative to control; format: functional
[11] = Selectivity index, ratio of IC50 for human A549 cells to MIC for Ralstonia solanacearum; format: toxicity; conditions: read-out: Selectivity Index
Staphylococcus aureus [12] = test: Potency index, ratio of fosfomycin sodium MIC to test compound MIC for methicillin-resistant Staphylococcus aureus; format: functional
[13] = Selectivity index, ratio of IC50 for human HeLa cells to MIC for Ralstonia solanacearum; format: toxicity; conditions: read-out: Selectivity Index
[14] = Cytotoxicity against human A549 cells assessed as cell viability at 4 ug/ml after 48 hrs by MTT assay relative to control; format: cell-based; conditions: read-out: Activity
Staphylococcus aureus [15] = test: Potency index, ratio of cefotaxime sodium MIC to test compound MIC for methicillin-resistant Staphylococcus aureus; format: functional
L02 = test: Cytotoxicity against human L02 cells assessed as decrease in cell viability after 48 hrs by MTT assay; format: cell-based; conditions: L02, 48 h
[16] = Cytotoxicity against human HeLa cells assessed as cell viability at 4 ug/ml after 48 hrs by MTT assay relative to control; format: cell-based; conditions: read-out: Activity
Staphylococcus aureus [17] = test: Induction of morphological changes in Staphylococcus aureus assessed as cell shrinkage at 1 ug/ml after 1 hr by SEM analysis; format: functional, organism-based
[18] = Selectivity index, ratio of IC50 for human SGC7901 cells to MIC for Bacillus cereus; format: toxicity; conditions: read-out: Selectivity Index
SGC-7901 = test: Cytotoxicity against human SGC7901 cells assessed as decrease in cell viability after 48 hrs by MTT assay; format: cell-based; conditions: SGC-7901, 48 h
Staphylococcus aureus [19] = test: Induction of membrane damage in Staphylococcus aureus at 1 ug/ml after 1 hr by Hoechst/propidium iodide staining-based fluorescence microscopic method; format: functional, organism-based
[20] = Selectivity index, ratio of IC50 for human SGC7901 cells to MIC for Ralstonia solanacearum; format: toxicity; conditions: read-out: Selectivity Index
[21] = Cytotoxicity against human SGC7901 cells assessed as cell viability at 4 ug/ml after 48 hrs by MTT assay relative to control; format: cell-based, SGC-7901; conditions: read-out: Activity
Ralstonia solanacearum [22] = test: Potency index, ratio of propineb MIC to test compound MIC for Ralstonia solanacearum; format: functional

Compound: O=C1CCC(O)c2cc3ccccc3n21 (centres undefined)
- MIC (Ralstonia solanacearum [1]): 32 µg/mL (≈ 159 µM)
- MIC (Staphylococcus aureus [2]): 8 µg/mL (≈ 39.8 µM)
- MIC (Bacillus cereus): 16 µg/mL (≈ 79.5 µM)
- MIC (Staphylococcus aureus [3]): 32 µg/mL (≈ 159 µM)
- MIC (Bacillus subtilis): 16 µg/mL (≈ 79.5 µM)

Compound: C#CCOc1ccc2c(c1)c1ccnc3ccc(=O)n2c31
- MIC (Ralstonia solanacearum [1]): 8 µg/mL (≈ 29.2 µM)
- MIC (Staphylococcus aureus [2]): 64 µg/mL (≈ 233 µM)
- MIC (Bacillus cereus): 8 µg/mL (≈ 29.2 µM)
- MIC (Staphylococcus aureus [3]): > 64 µg/mL
- MIC (Bacillus subtilis): > 64 µg/mL

Compound: O=C1CCCc2cc3ccccc3n21
- MIC (Ralstonia solanacearum [1]): > 64 µg/mL
- MIC (Staphylococcus aureus [2]): > 64 µg/mL
- MIC (Bacillus cereus): > 64 µg/mL
- MIC (Bacillus subtilis): > 64 µg/mL

Compound: COc1ccc2c(c1)c1cc[n+]([O-])c3ccc(=O)n2c13
- MIC (Ralstonia solanacearum [1]): > 64 µg/mL
- MIC (Staphylococcus aureus [2]): > 64 µg/mL
- MIC (Bacillus cereus): > 64 µg/mL
- MIC (Bacillus subtilis): > 64 µg/mL

Compound: O=c1ccc2nccc3c4cc(O)ccc4n1c23
- MIC (Ralstonia solanacearum [1]): > 64 µg/mL
- MIC (Staphylococcus aureus [2]): > 64 µg/mL
- MIC (Bacillus cereus): 16 µg/mL (≈ 67.7 µM)
- MIC (Bacillus subtilis): > 64 µg/mL

Compound: O=C1CCC2(SCCS2)c2cc3ccccc3n21
- MIC (Ralstonia solanacearum [1]): > 64 µg/mL
- MIC (Staphylococcus aureus [2]): 32 µg/mL (≈ 116 µM)
- MIC (Bacillus cereus): > 64 µg/mL
- MIC (Staphylococcus aureus [3]): > 64 µg/mL
- MIC (Bacillus subtilis): > 64 µg/mL

Compound: COc1ccc2[nH]c3c(C(OC)OC)nccc3c2c1
- MIC (Ralstonia solanacearum [1]): > 64 µg/mL
- MIC (Staphylococcus aureus [2]): > 64 µg/mL
- MIC (Bacillus cereus): > 64 µg/mL
- MIC (Bacillus subtilis): > 64 µg/mL

Compound: COc1ccc2c(c1)c1c3n2C(=O)CCC3NCC1 (centres undefined)
- MIC (Ralstonia solanacearum [1]): > 64 µg/mL
- MIC (Staphylococcus aureus [2]): > 64 µg/mL
- MIC (Bacillus cereus): > 64 µg/mL
- MIC (Bacillus subtilis): > 64 µg/mL

Compound: O=C1CCC(=O)n2c1cc1ccccc12
- MIC (Ralstonia solanacearum [1]): 8 µg/mL (≈ 40.2 µM)
- MIC (Staphylococcus aureus [2]): 8 µg/mL (≈ 40.2 µM)
- MIC (Bacillus cereus): 16 µg/mL (≈ 80.3 µM)
- MIC (Staphylococcus aureus [3]): 4 µg/mL (≈ 20.1 µM)
- MIC (Bacillus subtilis): 4 µg/mL (≈ 20.1 µM)

Compound: c1ccc2c(c1)[nH]c1cnccc12 [NORHARMANE]
- MIC (Ralstonia solanacearum [1]): > 64 µg/mL
- MIC (Staphylococcus aureus [2]): > 64 µg/mL
- MIC (Bacillus cereus): > 64 µg/mL
- MIC (Staphylococcus aureus [3]): > 64 µg/mL
- MIC (Bacillus subtilis): > 64 µg/mL

Compound: O=c1ccc2nccc3c4cc(OCc5cn(Cc6ccccc6)nn5)ccc4n1c23
- MIC (Bacillus cereus): > 64 µg/mL
- MIC (Bacillus subtilis): > 64 µg/mL

Compound: COc1ccc2c(c1)c1ccnc3c1n2CN(Cc1ccccc1)C3
- MIC (Ralstonia solanacearum [1]): > 64 µg/mL
- MIC (Staphylococcus aureus [2]): > 64 µg/mL
- MIC (Bacillus cereus): 64 µg/mL (≈ 194 µM)
- MIC (Bacillus subtilis): 64 µg/mL (≈ 194 µM)

Compound: COc1ccc2[nH]c3c(C=O)nccc3c2c1
- MIC (Ralstonia solanacearum [1]): > 64 µg/mL
- MIC (Staphylococcus aureus [2]): > 64 µg/mL
- MIC (Bacillus cereus): 32 µg/mL (≈ 141 µM)
- MIC (Bacillus subtilis): > 64 µg/mL

Compound: CO/N=C(\C(=O)N[C@@H]1C(=O)N2C(C(=O)[O-])=C(COC(C)=O)CS[C@H]12)c1csc(N)n1.[Na+] [CEFOTAXIME SODIUM]
- MIC (Ralstonia solanacearum [1]): 2 µg/mL
- MIC (Staphylococcus aureus [2]): 1 µg/mL
- MIC (Bacillus cereus): 16 µg/mL
- MIC (Staphylococcus aureus [3]): 16 µg/mL
- MIC (Bacillus subtilis): 2 µg/mL

Compound: C[C@@H]1O[C@@H]1P(=O)([O-])[O-].[Na+].[Na+] [PHOSPHOMYCIN DISODIUM]
- MIC (Ralstonia solanacearum [1]): 8 µg/mL
- MIC (Staphylococcus aureus [2]): 16 µg/mL
- MIC (Bacillus cereus): 4 µg/mL
- MIC (Staphylococcus aureus [3]): 8 µg/mL
- MIC (Bacillus subtilis): 2 µg/mL

Compound: COc1ccc2c(c1)c1c3n2C(=O)CCC3N(Cc2ccccc2)CC1 (centres undefined)
- MIC (Ralstonia solanacearum [1]): > 64 µg/mL
- MIC (Staphylococcus aureus [2]): 64 µg/mL (≈ 185 µM)
- MIC (Bacillus cereus): > 64 µg/mL
- MIC (Staphylococcus aureus [3]): 64 µg/mL (≈ 185 µM)
- MIC (Bacillus subtilis): > 64 µg/mL

Compound: O=C1CCCC2Cc3ccccc3N12 (centres undefined)
- MIC (Ralstonia solanacearum [1]): > 64 µg/mL
- MIC (Staphylococcus aureus [2]): > 64 µg/mL
- MIC (Bacillus cereus): > 64 µg/mL
- MIC (Bacillus subtilis): > 64 µg/mL

Compound: COc1ccc2[nH]c3cnccc3c2c1
- MIC (Ralstonia solanacearum [1]): > 64 µg/mL
- MIC (Staphylococcus aureus [2]): > 64 µg/mL
- MIC (Bacillus cereus): > 64 µg/mL
- MIC (Staphylococcus aureus [3]): > 64 µg/mL
- MIC (Bacillus subtilis): > 64 µg/mL

Compound: O=C(O)CNCP(=O)(O)O [GLYPHOSATE]
- Activity (Radish): 78%
- Activity (Triticum aestivum): 75%

Compound: O=C1CCC(=O)n2ccc3cccc1c32
- MIC (Ralstonia solanacearum [1]): > 64 µg/mL
- MIC (Staphylococcus aureus [2]): > 64 µg/mL
- MIC (Bacillus cereus): > 64 µg/mL
- MIC (Bacillus subtilis): > 64 µg/mL

Compound: CCc1cc2nccc3c4cc(OC)ccc4n(c1=O)c23
- MIC (Ralstonia solanacearum [1]): > 64 µg/mL
- MIC (Staphylococcus aureus [2]): > 64 µg/mL
- MIC (Bacillus cereus): > 64 µg/mL
- MIC (Bacillus subtilis): > 64 µg/mL

Compound: COc1ccc2c(c1)c1ccnc3ccc(=O)n2c31
- MIC (Ralstonia solanacearum [1]): 16 µg/mL (≈ 63.9 µM)
- MIC (Staphylococcus aureus [2]): > 64 µg/mL
- MIC (Bacillus cereus): 4 µg/mL (≈ 16 µM)
- MIC (Staphylococcus aureus [3]): 64 µg/mL (≈ 256 µM)
- MIC (Bacillus subtilis): 8 µg/mL (≈ 32 µM)

Compound: O=C1C=CC(=O)n2c1cc1ccccc12
- IC50 (A549): 97.1 µM
- MIC (Ralstonia solanacearum [1]): 4 µg/mL (≈ 20.3 µM)
- selectivity ratio [4]: 4.1
- selectivity ratio [5]: 4.9
- selectivity ratio [6]: 4.1
- viability at 48 h, 4 ug/ml [7]: 89%
- MIC (Staphylococcus aureus [2]): 2 µg/mL (≈ 10.1 µM)
- Activity (Radish): 100%
- IC50 (HeLa): 82.4 µM
- MIC (Bacillus cereus): 4 µg/mL (≈ 20.3 µM)
- MIC (Staphylococcus aureus [3]): 2 µg/mL (≈ 10.1 µM)
- Activity (Staphylococcus aureus [8]): Active
- selectivity ratio [9]: 4
- Efficacy (Ralstonia solanacearum [10]): 68%
- Activity (Triticum aestivum): 97%
- selectivity ratio [11]: 4.4
- Ratio (Staphylococcus aureus [12]): 4
- selectivity ratio [13]: 4.4
- viability at 48 h, 4 ug/ml [14]: 103%
- Ratio (Staphylococcus aureus [15]): 8
- IC50 (L02): 79.5 µM
- viability at 48 h, 4 ug/ml [16]: 91%
- MIC (Bacillus subtilis): 2 µg/mL (≈ 10.1 µM)
- Activity (Staphylococcus aureus [17]): Active
- selectivity ratio [18]: 4.9
- IC50 (SGC-7901): 88.6 µM
- Activity (Staphylococcus aureus [19]): Active
- selectivity ratio [20]: 4
- viability at 48 h, 4 ug/ml [21]: 96%

Compound: COc1ccc2c(c1)c1ccnc3c1n2CCC3
- MIC (Ralstonia solanacearum [1]): 4 µg/mL (≈ 16.8 µM)
- MIC (Staphylococcus aureus [2]): > 64 µg/mL
- MIC (Bacillus cereus): 32 µg/mL (≈ 134 µM)
- MIC (Staphylococcus aureus [3]): 32 µg/mL (≈ 134 µM)
- Ratio (Ralstonia solanacearum [22]): 2
- MIC (Bacillus subtilis): > 64 µg/mL
